Data taken from the supplement of paper PMC11208160.

Assay: recombinant UMI read abundance after kanamycin selection (control-corrected) (log10(CPM+1)); higher = more efficient recombination; extreme values may be limits of the assay; sequences stand for … in AGTGCAGAGAAAATCGGCCAGTTTTCTCTGCCTGCAGTCCGCATGCCGTGGGACCCCTTGGGTTCTAACCTGTTGCCTAGATTTATGCAGCGGACTGCCTTTCTCCCAAAGTGATAAACCGG…AGGTTGGTTTCACT; site = the 11-nt donor
In short: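 In a pooled Escherichia coli screen for the IS621 bridge recombinase, donor and donor-binding-loop pairs were each placed with a 12-nt UMI on a plasmid bearing a promoterless kanamycin gene. This library was co-electroporated with a target plasmid encoding a fixed target and T7-inducible recombinase, and cells were plated either on IPTG (0.07 mM) plus kanamycin or without selection, in two replicates each. Recombinant UMIs were PCR-amplified across the donor–target junction and sequenced, and counts were converted to CPM, averaged over replicates, scaled by control-derived factors and reported as log10(CPM+1).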
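Also: IS621 bridge recombinase in Escherichia coli cells against a fixed T5 target plasmid.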

Point of comparison: “ATCTATCCATGGACCGGTTTTCCCGGTAATCCGTATTTGAC (site ATCTATCCTGT)”, “recombinant UMI read abundance (log10)” value 0.991. Against it:
- ATCCGAGCATGGACCGGTTTTCCCGGTAATCCGTATTTGAG (site ATCCTAGCTCT) — lower, 0.0162
- ATCCGATCATGGACCGGTTTTCCCGGTAATCCGTATTTGGT (site ATCCGATCTAC) — lower, 0.721
- ATCCTATCATGGACCGGTTTTCCCGGTAATCCGTATTTGAC (site ATCCTATCTGT) — higher, 1.58
- ATCCTGGCATGGACCGGTTTTCCCGGTAATCCGTATTTGAC (site ATCCTGGCTGT) — lower, 0
- ATCGATACATGGACCGGTTTTCCCGGTAATCCGTATTTGAC (site ATCAATACTGT) — higher, 1.49
- ATCGATACATGGACCGGTTTTCCCGGTAATCCGTATTTGAC (site ATCCATACTGT) — lower, 0
- ATCGATACATGGACCGGTTTTCCCGGTAATCCGTATTTGAC (site ATCGATACTGT) — higher, 2.32
- ATCGATACATGGACCGGTTTTCCCGGTAATCCGTATTTGAC (site ATCTATACTGT) — lower, 0.652
- ATCGTCACATGGACCGGTTTTCCCGGTAATCCGTATTTGCA (site ATCGTCACTTG) — higher, 2.56
- ATCGTTCCATGGACCGGTTTTCCCGGTAATCCGTATTTGTT (site ATCGTTCCTAA) — lower, 0.568
- ATCTAATCATGGACCGGTTTTCCCGGTAATCCGTATTTGGA (site ATCTAATCTTC) — higher, 2.05
- ATCTACACATGGACCGGTTTTCCCGGTAATCCGTATTTGCT (site ATCTACACTAG) — higher, 2.26
- ATCTACACATGGACCGGTTTTCCCGGTAATCCGTATTTGCT (site CTCTACACTAG) — higher, 1.56
- ATCTACACATGGACCGGTTTTCCCGGTAATCCGTATTTGCT (site GTCTACACTAG) — higher, 1.41
- ATCTACACATGGACCGGTTTTCCCGGTAATCCGTATTTGCT (site TTCTACACTAG) — higher, 2.05
- ATCTAGACATGGACCGGTTTTCCCGGTAATCCGTATTTGAC (site ATCTAAACTGT) — higher, 2.21
- ATCTAGACATGGACCGGTTTTCCCGGTAATCCGTATTTGAC (site ATCTACACTGT) — lower, 0
- ATCTAGACATGGACCGGTTTTCCCGGTAATCCGTATTTGAC (site ATCTAGACTGT) — higher, 2.68
- ATCTAGACATGGACCGGTTTTCCCGGTAATCCGTATTTGAC (site ATCTATACTGT) — lower, 0
- ATCTATCCATGGACCGGTTTTCCCGGTAATCCGTATTTGAC (site ATCTATACTGT) — lower, 0
- ATCTATCCATGGACCGGTTTTCCCGGTAATCCGTATTTGAC (site ATCTATGCTGT) — lower, 0
- ATCTATCCATGGACCGGTTTTCCCGGTAATCCGTATTTGAC (site ATCTATTCTGT) — lower, 0
- ATCTATTCATGGACCGGTTTTCCCGGTAATCCGTATTTGAC (site ATCTATACTGT) — lower, 0.00799
- ATCTATTCATGGACCGGTTTTCCCGGTAATCCGTATTTGAC (site ATCTATCCTGT) — higher, 1.89
- ATCTATTCATGGACCGGTTTTCCCGGTAATCCGTATTTGAC (site ATCTATGCTGT) — lower, 0
- ATCTATTCATGGACCGGTTTTCCCGGTAATCCGTATTTGAC (site ATCTATTCTGT) — higher, 1.51
- ATGAAGGCATGGACCGGTTTTCCCGGTAATCCGTATTTGGC (site ATGAAGGCTGC) — higher, 2.32
- ATGAAGGCATGGACCGGTTTTCCCGGTAATCCGTATTTGGC (site ATGCAGGCTGC) — higher, 1.72
- ATGAAGGCATGGACCGGTTTTCCCGGTAATCCGTATTTGGC (site ATGGAGGCTGC) — higher, 2.09
- ATGAAGGCATGGACCGGTTTTCCCGGTAATCCGTATTTGGC (site ATGTAGGCTGC) — higher, 2.08
- ATGACGACATGGACCGGTTTTCCCGGTAATCCGTATTTGCA (site AGGAAGACTTG) — lower, 0
- ATGACGACATGGACCGGTTTTCCCGGTAATCCGTATTTGCA (site ATGACGACTTG) — higher, 1.81
- ATGACTACATGGACCGGTTTTCCCGGTAATCCGTATTTGAC (site AAGACTACTGT) — lower, 0.508
- ATGACTACATGGACCGGTTTTCCCGGTAATCCGTATTTGAC (site ACGACTACTGT) — higher, 1.92
- ATGACTACATGGACCGGTTTTCCCGGTAATCCGTATTTGAC (site AGGACTACTGT) — within 0.2 log units, 0.907
- ATGACTACATGGACCGGTTTTCCCGGTAATCCGTATTTGAC (site ATGACTACTGT) — higher, 2.54
- ATGACTGCATGGACCGGTTTTCCCGGTAATCCGTATTTGTC (site ATGACTGCTGA) — higher, 1.47
- ATGAGCACATGGACCGGTTTTCCCGGTAATCCGTATTTGGA (site ATGAGCACTTC) — within 0.2 log units, 0.82
- ATGAGGCCATGGACCGGTTTTCCCGGTAATCCGTATTTGAC (site ATAAGGCCTGT) — lower, 0
- ATGAGGCCATGGACCGGTTTTCCCGGTAATCCGTATTTGAC (site ATCAGGCCTGT) — lower, 0
- ATGAGGCCATGGACCGGTTTTCCCGGTAATCCGTATTTGAC (site ATGAGGCCTGT) — lower, 0.716
- ATGAGGCCATGGACCGGTTTTCCCGGTAATCCGTATTTGAC (site ATTAGGCCTGT) — lower, 0
- ATGATGGCATGGACCGGTTTTCCCGGTAATCCGTATTTGAC (site ATGATGGCTGT) — higher, 2.7
- ATGCAGGCATGGACCGGTTTTCCCGGTAATCCGTATTTGGC (site ATGAAGGCTGC) — lower, 0
- ATGCAGGCATGGACCGGTTTTCCCGGTAATCCGTATTTGGC (site ATGCAGGCTGC) — higher, 2.77
- ATGCAGGCATGGACCGGTTTTCCCGGTAATCCGTATTTGGC (site ATGGAGGCTGC) — lower, 0
- ATGCAGGCATGGACCGGTTTTCCCGGTAATCCGTATTTGGC (site ATGTAGGCTGC) — within 0.2 log units, 0.922
- ATGCCACCATGGACCGGTTTTCCCGGTAATCCGTATTTGTA (site ATGCCACCTTA) — lower, 0
- ATGCTGACATGGACCGGTTTTCCCGGTAATCCGTATTTGGT (site ATGCTGACTAC) — higher, 1.32
- ATGCTTCCATGGACCGGTTTTCCCGGTAATCCGTATTTGCA (site ATGCTTCCTTG) — higher, 1.47
- ATGGAGACATGGACCGGTTTTCCCGGTAATCCGTATTTGGT (site ATAGAGACTAC) — higher, 1.66
- ATGGAGACATGGACCGGTTTTCCCGGTAATCCGTATTTGGT (site ATCGAGACTAC) — lower, 0.157
- ATGGAGACATGGACCGGTTTTCCCGGTAATCCGTATTTGGT (site ATGGAGACTAC) — higher, 1.83
- ATGGAGACATGGACCGGTTTTCCCGGTAATCCGTATTTGGT (site ATTGAGACTAC) — lower, 0.681
- ATGGAGTCATGGACCGGTTTTCCCGGTAATCCGTATTTGGA (site ATGGAGTCTTC) — higher, 2.86
- ATGGGAGCATGGACCGGTTTTCCCGGTAATCCGTATTTGCT (site ATGGGAGCTAG) — higher, 2.19
- ATGGGCTCATGGACCGGTTTTCCCGGTAATCCGTATTTGTC (site ATGGGCTCTGA) — higher, 2.97
- ATGGGGTCATGGACCGGTTTTCCCGGTAATCCGTATTTGAC (site ATGGGGTCTGT) — higher, 3.47
- ATGGTTCCATGGACCGGTTTTCCCGGTAATCCGTATTTGTC (site ATGGTTCCTGA) — higher, 1.67
- ATGTACACATGGACCGGTTTTCCCGGTAATCCGTATTTGAA (site ATGTACACTTT) — higher, 1.82
- ATGTAGACATGGACCGGTTTTCCCGGTAATCCGTATTTGGC (site ATGTAGACTGC) — higher, 2.91
- ATGTAGACATGGACCGGTTTTCCCGGTAATCCGTATTTGGC (site ATGTAGCCTGC) — lower, 0
- ATGTAGACATGGACCGGTTTTCCCGGTAATCCGTATTTGGC (site ATGTAGGCTGC) — higher, 2.14
- ATGTAGACATGGACCGGTTTTCCCGGTAATCCGTATTTGGC (site ATGTAGTCTGC) — higher, 1.67
- ATGTAGCCATGGACCGGTTTTCCCGGTAATCCGTATTTGTT (site ATGTAGCCTAA) — lower, 0.171
- ATGTAGGCATGGACCGGTTTTCCCGGTAATCCGTATTTGAC (site ATGTAGGCTGA) — higher, 2.33
- ATGTAGGCATGGACCGGTTTTCCCGGTAATCCGTATTTGAC (site ATGTAGGCTGC) — higher, 1.87
- ATGTAGGCATGGACCGGTTTTCCCGGTAATCCGTATTTGAC (site ATGTAGGCTGG) — higher, 1.57
- ATGTAGGCATGGACCGGTTTTCCCGGTAATCCGTATTTGAC (site ATGTAGGCTGT) — higher, 3.04
- ATGTAGTCATGGACCGGTTTTCCCGGTAATCCGTATTTGGC (site ATGTAGACTGC) — higher, 1.85
- ATGTAGTCATGGACCGGTTTTCCCGGTAATCCGTATTTGGC (site ATGTAGCCTGC) — lower, 0
- ATGTAGTCATGGACCGGTTTTCCCGGTAATCCGTATTTGGC (site ATGTAGGCTGC) — lower, 0
- ATGTAGTCATGGACCGGTTTTCCCGGTAATCCGTATTTGGC (site ATGTAGTCTGC) — higher, 3.26
- ATGTATGCATGGACCGGTTTTCCCGGTAATCCGTATTTGGC (site ATGTAAGCTGC) — higher, 1.52
